Columns and labels:
[1] = several grams taken, patients; cited from earlier work
[2] = test system: pancreatin (Panzytrat 40,000); experiment: Cleavage experiments with pancreatin in water, followed by acid number; assay type: in vitro ADME, porcine; conditions: each ester in its pure form, 50° C.
Description: 2 g of each of the 3-acetoacetate-BHB ethyl esters prepared as described above and the 3-acetoacetate-BHB fatty alcohol esters prepared as described above are dissolved in 50 g water and 0.5 g (1% by weight) pancreatin is added. The pancreatin is used in the form of the commercially available product Panzytrat® 40,000 from the Allergan company. The whole mixture is stirred on a hot plate at 50° C.; the course of the reaction is determined and monitored by continuously recording the acid number over time. […] This is confirmed by corresponding analytics. The experiment proves that both the 3-acetylaceto-BHB ethyl ester according to the invention and the functionalized derivatives (i. e. 3-acetylaceto-BHB fatty alcohol esters) are suitable physiological precursors for 3-hydroxybutyric acid for the corresponding keto body therapies. The experiments are repeated and verified using each ester in its pure form.

[3] = Cleavage experiments in FaSSGF medium simulating the stomach, with or without pancreatin (Panzytrat); assay type: in vitro ADME; conditions: in the presence or absence of pancreatin
Excerpt: (§1) Esters tested: • 3-Acetylaceto-BHB ethyl ester • 3-Acetylaceto-BHB decyl ester • 3-Acetylaceto-BHB oleyl ester • 3-Acetylaceto-BHB cetyl ester • 3-Acetylaceto-BHB-margaryl ester • 3-Acetylaceto-BHB stearyl ester • 3-Acetylaceto-BHB behenyl ester • 3-Acetylaceto-BHB melissyl ester • 3-Acetylaceto-BHB palmitoyl ester • 3-Acetylaceto-BHB linoleyl ester For the cleavage experiments under near-body conditions two media are investigated: • FaSSGF, which simulates the stomach • FaSSIF, which simulates the intestinal tract Both media are from the company Biorelevant®, Ltd. in Great Britain. In addition, in some experiments porcine pancreas is added (Panzytrat® 40,000, Fa. Allergan).
(§2) Under FaSSIF conditions, a lower conversion using Panzytrat® takes place.

[4] = Cleavage experiments in FaSSIF medium simulating the intestinal tract, with or without pancreatin (Panzytrat); assay type: in vitro ADME; conditions: in the presence or absence of pancreatin
Excerpt: as §1, §2

| SMILES | duration of ketosis [1] | cleavage by pancreatin [2] | cleavage in gastric medium [3] | cleavage in intestinal medium [4] |
| --- | --- | --- | --- | --- |
| CC(O)CC(=O)O (stereo not shown) [3-hydroxybutyric acid] | three to four |  |  |  |
| CCOC(=O)CC(C)OC(=O)CC(C)=O (stereo not shown) [3-acetylaceto-BHB ethyl ester, 3-acetylacetobutyric acid ethyl ester] |  | cleaved by pancreatin | cleavage to 3-BHB in the free form | cleavage to 3-BHB in the free form |

From patent US12570599B2, “Process for preparing acyl-capped 3-hydroxycarboxylic acids and their salts and esters” (KetoLipix Therapeutics GmbH, priority 2019, dated 2026)
